In patent US20240218022A1, “ANTI-VISTA MACROCYCLIC PEPTIDES AND COMPOSITIONS” (BRISTOL-MYERS SQUIBB COMPANY, priority 2022, published 2024) one finds IC50 data, which are given here for 13 molecules.

This experiment has as its target T1, mouse VISTA (mVISTA) (Mus musculus, UniProt Q9D659).
T1 construct: expressed in transfected cells; host or cells: Human embryonic kidney 293T cells
T1 sequence (Q9D659 33-308): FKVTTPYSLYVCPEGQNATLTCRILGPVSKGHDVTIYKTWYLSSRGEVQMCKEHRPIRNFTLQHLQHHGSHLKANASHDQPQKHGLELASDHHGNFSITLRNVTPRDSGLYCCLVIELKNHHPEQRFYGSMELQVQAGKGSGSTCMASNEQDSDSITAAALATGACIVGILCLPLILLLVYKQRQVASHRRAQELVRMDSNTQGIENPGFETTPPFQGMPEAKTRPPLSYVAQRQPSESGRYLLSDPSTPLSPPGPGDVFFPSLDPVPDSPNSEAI
Nature of the experiment: Cell-Based Binding High-Content Assay For mVISTA (HC CBA mVISTA). In a few lines:
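293T cells expressing mouse VISTA, with compounds added either after seeding ("no wash") or before seeding and then washed out after 1 h. Biotinylated peptide 2 nM for 30 min at room temperature, then detection with Alexa 647–streptavidin. After fixation with Hoechst stain, plates were high-content imaged; IC50 from four-parameter logistic fit.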

Setting [1] is: cell-based binding high-content assay, mVISTA, read-out: HC CBA miPrISTA IC50.
The mark [2] stands for this setting: cell-based binding high-content assay, mVISTA, the 16th table, read-out: HC CBA mVISTA IC50.

Like-named read-outs stand apart in the source and are kept apart here. Starred links: 1 amine or outer side, 2 acyl side, 3 side chain; linkers in the order of their positions; H or OH if unused. Positions of bridges follow the written chain, without caps; N, C: chain ends. Non-standard residues stand in square brackets, D forms with d. Residues, ends and D or L forms follow the SMILES beside them. Phe(3-F) = N[C@@H](Cc1cccc(F)c1)C(=O)O; Phe(3-Me) = Cc1cccc(C[C@H](N)C(=O)O)c1; γGlu = O=C(O)[C@H](CCC(=O)[*:2])N[*:1]; 2Nal = N[C@@H](Cc1ccc2ccccc2c1)C(=O)O; βAsp = O=C(O)[C@H](CC(=O)[*:2])N[*:1]; Cha = N[C@@H](CC1CCCCC1)C(=O)O; NMeL = CN[C@@H](CC(C)C)C(=O)O; Ahp(2) = CCCCC[C@H](N)C(=O)O; NMeNle = CCCC[C@H](NC)C(=O)O; Tle = CC(C)(C)[C@H](N)C(=O)O; NMeV = CN[C@H](C(=O)O)C(C)C; NHexGly = CCCCCCNCC(=O)O; Nle = CCCC[C@H](N)C(=O)O; Orn = NCCC[C@H](N)C(=O)O; Aun = NCCCCCCCCCCC(=O)O; Dab = NCC[C@H](N)C(=O)O; AEEA = NCCOCCOCC(=O)O

The term IC50 denotes the midpoint of a concentration-inhibition curve. Regarding `CCCCCCN1CC(=O)N[C@@H](Cc2ccc(O)cc2)C(=O)N[C@@H](CC(C)C)C(=O)N[C@@H](CC(N)=O)C(=O)N[C@@H](CCCNC(=N)N)C(=O)N(C)[C@@H](CCCC)C(=O)N[C@@H](CCCCC)C(=O)N2CCC[C@H]2C(=O)N[C@@H](C(C)(C)C)C(=O)N[C@@H](CO)C(=O)N[C@H](C(=O)N[C@@H](CCN)C(=O)NCCOCCOCC(=O)N[C@@H](CC(=O)O)C(=O)NCCOCCOCC(=O)NCCCCCCCCCCC(=O)O)CSCC(=O)N[C@@H](Cc2ccccc2)C(=O)N[C@@H](Cc2ccc(O)cc2)C(=O)N[C@@H](CC(=O)O)C1=O` [compound 2086] ({CH2CO}-FYD[NHexGly]YLNR[NMeNle][Ahp(2)]P[Tle]SC[Dab][AEEA]D[AEEA][Aun]-OH; thioether N-14), the IC50 under setting [1] is 0.0499 µM.

As for `CCCCCCN1CC(=O)N[C@@H](Cc2ccc(O)cc2)C(=O)N[C@@H](CC(C)C)C(=O)N[C@@H](CC(N)=O)C(=O)N[C@@H](CCCNC(=N)N)C(=O)N(C)[C@@H](CCCC)C(=O)N[C@@H](CCCCC)C(=O)N2CCC[C@H]2C(=O)N[C@@H](C(C)(C)C)C(=O)N[C@@H](CO)C(=O)N[C@H](C(=O)NCC(N)=O)CSCC(=O)N[C@@H](Cc2ccccc2)C(=O)N[C@@H](Cc2cccc(F)c2)C(=O)N[C@@H](CC(=O)O)C1=O` [compound 1341] ({CH2CO}-F[Phe(3-F)]D[NHexGly]YLNR[NMeNle][Ahp(2)]P[Tle]SCG-NH2; thioether N-14), the IC50 (read-out: HC CBA mVISTA IC50) is 0.0191 µM.

With `CCCCCCN1CC(=O)N[C@@H](Cc2ccc(O)cc2)C(=O)N[C@@H](CC(C)C)C(=O)NCC(=O)N[C@@H](CCCNC(=N)N)C(=O)N[C@@H](CC(C)C)C(=O)N[C@@H](CCCCC)C(=O)N2CCC[C@H]2C(=O)N[C@@H](C(C)C)C(=O)N[C@@H](CC(=O)O)C(=O)N[C@H](C(=O)NCC(N)=O)CSCC(=O)N[C@@H](Cc2ccc3ccccc3c2)C(=O)N[C@@H](Cc2ccc(O)cc2)C(=O)N[C@@H](CC(=O)O)C1=O` [Ex 1281] ({CH2CO}-[2Nal]YD[NHexGly]YLGRL[Ahp(2)]PVDCG-NH2; thioether N-14), the IC50 under setting [2] was determined as 0.0229 µM.

In the case of `CCCCCCN1CC(=O)N[C@@H](Cc2ccc(O)cc2)C(=O)N[C@@H](CCCCN)C(=O)N[C@@H](CC(N)=O)C(=O)N[C@@H](CCCN)C(=O)N(C)[C@@H](CCCC)C(=O)N[C@@H](CCCCC)C(=O)N2CCC[C@H]2C(=O)N[C@@H](C(C)(C)C)C(=O)N[C@@H](CO)C(=O)N[C@H](C(=O)N[C@@H](CCC(=O)NCCCCCCCCCCC(=O)O)C(=O)O)CSCC(=O)N[C@@H](Cc2ccccc2)C(=O)N[C@@H](Cc2ccc(O)cc2)C(=O)N[C@@H](CC(=O)O)C1=O` [Example 2139] ({CH2CO}-FYD[NHexGly]YKN[Orn][NMeNle][Ahp(2)]P[Tle]SC[γGlu][Aun]-OH; thioether N-14), the IC50 (read-out: HC CBA mVISTA IC50) was determined as 0.0457 µM.

Turning to `CCCCCCN1CC(=O)N[C@@H](Cc2ccc(O)cc2)C(=O)N[C@@H](CCCC)C(=O)N[C@@H](CC(N)=O)C(=O)N[C@@H](CCCNC(=N)N)C(=O)N(C)[C@@H](C(C)C)C(=O)N[C@@H](CCCCC)C(=O)N2CCC[C@H]2C(=O)N[C@@H](C(C)C)C(=O)N[C@@H](CC(=O)O)C(=O)N[C@H](C(=O)NCC(=O)O)CSCC(=O)N[C@@H](Cc2ccccc2)C(=O)N[C@@H](Cc2c[nH]c3ccccc23)C(=O)N[C@@H](CC(=O)O)C1=O` [Example 1409] ({CH2CO}-FWD[NHexGly]Y[Nle]NR[NMeV][Ahp(2)]PVDCG-OH; thioether N-14), the IC50 (read-out: HC CBA mVISTA IC50) was determined as 0.0127 µM.

On to `CCCCCCN1CC(=O)N[C@@H](Cc2ccc(O)cc2)C(=O)N[C@@H](CCCCC)C(=O)NCC(=O)N[C@@H](CCCNC(=N)N)C(=O)N[C@@H](CC(C)C)C(=O)N[C@@H](CCCCC)C(=O)N2CCC[C@H]2C(=O)N[C@@H](C(C)C)C(=O)N[C@@H](CO)C(=O)N[C@H](C(=O)NCCOCCOCC(=O)N[C@@H](CC(=O)NCCOCCOCC(=O)NCCCCCCCCCCC(=O)O)C(=O)O)CSCC(=O)N[C@@H](Cc2ccccc2)C(=O)N[C@@H](Cc2ccc(O)cc2)C(=O)N[C@@H](CC(=O)O)C1=O` [Example 2199] ({CH2CO}-FYD[NHexGly]Y[Ahp(2)]GRL[Ahp(2)]PVSC[AEEA][βAsp][AEEA][Aun]-OH; thioether N-14), for which the IC50 (read-out: HC CBA mVISTA IC50) stood at 0.0183 µM.

For `CCCCCCN1CC(=O)N[C@@H](Cc2ccc(O)cc2)C(=O)N[C@@H](CCCC)C(=O)N[C@@H](CC(N)=O)C(=O)N[C@@H](CCCNC(=N)N)C(=O)N[C@@H](CC(C)C)C(=O)N[C@@H](CCCCC)C(=O)N2CCC[C@H]2C(=O)N[C@@H](C(C)C)C(=O)N[C@@H](CC(=O)O)C(=O)N[C@H](C(=O)NCCOCCOCC(=O)N[C@@H](CC(=O)NCCOCCOCC(=O)NCCCCCCCCCCC(=O)O)C(=O)O)CSCC(=O)N[C@@H](Cc2cccc(C)c2)C(=O)N[C@@H](Cc2c[nH]c3ccccc23)C(=O)N[C@@H](CC(=O)O)C1=O` [Example 2198] ({CH2CO}-[Phe(3-Me)]WD[NHexGly]Y[Nle]NRL[Ahp(2)]PVDC[AEEA][βAsp][AEEA][Aun]-OH; thioether N-14), the half-maximal inhibitory concentration (IC50) (read-out: HC CBA mVISTA IC50) was determined as 0.0152 µM.

For `CCCCCCN1CC(=O)N[C@@H](Cc2ccc(O)cc2)C(=O)N[C@@H](CC2CCCCC2)C(=O)N[C@@H](CC(N)=O)C(=O)N[C@@H](CCCNC(=N)N)C(=O)N(C)[C@@H](CCCC)C(=O)N[C@@H](CCCCC)C(=O)N2CCC[C@H]2C(=O)N[C@@H](C(C)(C)C)C(=O)N[C@@H](CO)C(=O)N[C@H](C(=O)N[C@@H](CC(=O)NCCOCCOCC(=O)N[C@@H](CC(=O)O)C(=O)NCCOCCOCC(=O)NCCCCCCCCCCC(=O)O)C(=O)O)CSCC(=O)N[C@@H](Cc2ccccc2)C(=O)N[C@@H](Cc2ccc(O)cc2)C(=O)N[C@@H](CC(=O)O)C1=O` [compound 2053] ({CH2CO}-FYD[NHexGly]Y[Cha]NR[NMeNle][Ahp(2)]P[Tle]SC[βAsp][AEEA]D[AEEA][Aun]-OH; thioether N-14), the IC50 (cell-based binding high-content assay, mVISTA, read-out: HC CBA miPr ISTA IC50) came to 0.0394 µM.

In the case of `CCCCCCN1CC(=O)N[C@@H](Cc2ccc(O)cc2)C(=O)N[C@@H](CC(C)C)C(=O)NCC(=O)N[C@@H](CCCNC(=N)N)C(=O)N[C@@H](CC(C)C)C(=O)N[C@@H](CCCCC)C(=O)N2CCC[C@H]2C(=O)N[C@@H](C(C)C)C(=O)N[C@@H](CO)C(=O)N[C@H](C(=O)NCC(=O)O)CSCC(=O)N[C@@H](Cc2ccc3ccccc3c2)C(=O)N[C@@H](Cc2ccc(O)cc2)C(=O)N[C@@H](CC(=O)O)C1=O` [Ex 1274] ({CH2CO}-[2Nal]YD[NHexGly]YLGRL[Ahp(2)]PVSCG-OH; thioether N-14), under setting [2], the concentration for half-maximal inhibition (IC50) worked out at 0.032 µM.

As to `CCCCCCN1CC(=O)N[C@@H](Cc2ccc(O)cc2)C(=O)N[C@@H](CCCC)C(=O)N[C@@H](CC(N)=O)C(=O)N[C@@H](CCCNC(=N)N)C(=O)N(C)[C@@H](CC(C)C)C(=O)N[C@@H](CCCCC)C(=O)N2CCC[C@H]2C(=O)N[C@@H](C(C)(C)C)C(=O)N[C@@H](CO)C(=O)N[C@H](C(=O)NCCOCCOCC(=O)N[C@@H](CCC(=O)NCCOCCOCC(=O)NCCCCCCCCCCC(=O)O)C(=O)O)CSCC(=O)N[C@@H](Cc2ccccc2)C(=O)N[C@@H](Cc2c[nH]c3ccccc23)C(=O)N[C@@H](CC(=O)O)C1=O` [compound 2229] ({CH2CO}-FWD[NHexGly]Y[Nle]NR[NMeL][Ahp(2)]P[Tle]SC[AEEA][γGlu][AEEA][Aun]-OH; thioether N-14), the IC50 (read-out: HC CBA mVISTA IC50) was found to be 0.0331 µM.

`CCCCCCN1CC(=O)N[C@@H](Cc2ccc(O)cc2)C(=O)N[C@@H](CCCC)C(=O)N[C@@H](CC(N)=O)C(=O)N[C@@H](CCCNC(=N)N)C(=O)N(C)[C@@H](CCCC)C(=O)N[C@@H](CCCCC)C(=O)N(C)[C@@H](CC(C)C)C(=O)N[C@@H](C(C)C)C(=O)N[C@@H](CO)C(=O)N[C@H](C(=O)N[C@@H](CC(=O)NCCOCCOCC(=O)NCCCCCCCCCCC(=O)O)C(=O)O)CSCC(=O)N[C@@H](Cc2ccccc2)C(=O)N[C@@H](Cc2c[nH]c3ccccc23)C(=O)N[C@@H](CC(=O)O)C1=O` [Example 2180] ({CH2CO}-FWD[NHexGly]Y[Nle]NR[NMeNle][Ahp(2)][NMeL]VSC[βAsp][AEEA][Aun]-OH; thioether N-14): the IC50 (read-out: HC CBA mVISTA IC50) turned out to be 0.0185 µM.

With `CCCCCCN1CC(=O)N[C@@H](Cc2ccc(O)cc2)C(=O)N[C@@H](CCCC)C(=O)N[C@@H](CC(N)=O)C(=O)N[C@@H](CCCNC(=N)N)C(=O)N[C@@H](CC(C)C)C(=O)N[C@@H](CCCCC)C(=O)N2CCC[C@H]2C(=O)N[C@@H](C(C)C)C(=O)N[C@@H](CC(=O)O)C(=O)N[C@H](C(=O)NCC(=O)O)CSCC(=O)N[C@@H](Cc2ccc(OCC)cc2)C(=O)N[C@@H](Cc2c[nH]c3ccccc23)C(=O)N[C@@H](CC(=O)O)C1=O` [compound 1476] ({CH2CO}-Y(Et)WD[NHexGly]Y[Nle]NRL[Ahp(2)]PVDCG-OH; thioether N-14), the IC50 (the 20th table, scaffold drawing 23, read-out: HC CBA mVISTA IC50) came to 0.0365 µM.

On to `CCCCCCN1CC(=O)N[C@@H](Cc2ccc(O)cc2)C(=O)N[C@@H](C)C(=O)N[C@@H](CC(N)=O)C(=O)N[C@@H](CCCN)C(=O)N(C)[C@@H](CCCC)C(=O)N[C@@H](CCCCC)C(=O)N2CCC[C@H]2C(=O)N[C@@H](C(C)(C)C)C(=O)N[C@@H](CO)C(=O)N[C@H](C(=O)N[C@@H](CC(=O)NCCOCCOCC(=O)N[C@@H](CC(=O)O)C(=O)NCCOCCOCC(=O)NCCCCCCCCCCC(=O)O)C(=O)O)CSCC(=O)N[C@@H](Cc2ccccc2)C(=O)N[C@@H](Cc2c[nH]c3ccccc23)C(=O)N[C@@H](CC(=O)O)C1=O` [compound 2093] ({CH2CO}-FWD[NHexGly]YAN[Orn][NMeNle][Ahp(2)]P[Tle]SC[βAsp][AEEA]D[AEEA][Aun]-OH; thioether N-14), for which the IC50 under setting [1] was 0.0221 µM.
